In patent EP3319959B1, “HETERO-HALO INHIBITORS OF HISTONE DEACETYLASE” (Alkermes, Inc., priority 2015, dated 2017) one finds IC50 data, which are given here for 68 molecules.

In general, pIC50 refers to −log10 of the IC50, conventionally taken in molar units.

SMILES strings stand for the structures. pIC50: −log10 of the molar value.

The assay relates to recombinant human HDACs. The assay can be described thus: HDAC enzymatic assay (LabChip capillary electrophoresis). Type of assay: biochemical. The note with it: 5 nM HDAC enzyme, 1 uM substrate, 5 hours pre-incubation, 17 hours reaction at 25°C; isoform not given. The procedure:
All recombinant human HDACs were purchased from BPS Bioscience. The substrate, FAM-TSRHK(AC)KL-CONH, was synthesized at NanoSyn. Final assay reactions contained 100 mM HEPES (pH 7.5), 50 mM KCl, 0.1% BSA, 0.01% Triton X-100, 1% DMSO, 1 uM substrate and 5 nM HDAC enzyme. Enzyme and compounds were pre-incubated at 25°C for 5 hours and reactions were initiated by addition of substrate. 10 uL reactions were incubated for 17 hours at 25°C and terminated by the addition of 40 uL of buffer containing 100 mM HEPES (pH 7.5), 0.1% BSA, 0.01% Triton X-100 and 0.05% SDS. Substrate and product peptides present in each sample were separated electrophoretically using the LabChip 3000 capillary electrophoresis instrument. Change in the relative fluorescence intensity of the substrate and product peaks reflects enzyme activity. Reaction progress was determined as the product to sum ratio (PSR): P/(S+P), where P is the peak height of the product peptide and S is the peak height of the substrate peptide. Reactions were performed in duplicate at 12 concentrations, (3X serial dilutions starting at 30 uM). IC50 values were calculated using a 4 Parameter Logistic Model.
Turning to `Cc1cnc(C(=O)Nc2nc(-c3ccc(F)cc3)ccc2N)s1` [Compound 226], the pIC50 was 6.30 to 7.00. As for `Nc1ccc(-c2ccc(OC(F)F)cc2)nc1NC(=O)N1Cc2nccnc2C1` [Compound 228], the figure is 5.30 to 6.30. As to `Nc1ccc(-c2ccc(OC(F)F)cc2)nc1NC(=O)N1CCCC1` [Compound 232], the negative-log IC50 (pIC50) was 5.30 to 6.30.

As to `Nc1ccc(-c2ccc(F)cc2)nc1NC(=O)N1CC2CN(CC3CCOCC3)CC2C1` (centres unmarked) [Compound 235], the pIC50 was below 5.30. Regarding `Nc1ccc(-c2ccc(F)cc2)nc1NC(=O)N1CC2CN(C3CCOCC3)CC2C1` (centres unmarked) [Compound 236], the negative-log IC50 (pIC50) was below 5.30. Take `CN(C1CCOC1)C1CC2CN(C(=O)Nc3nc(-c4ccc(F)cc4)ccc3N)CC2C1` (centres unmarked) [Compound 237]: the negative-log IC50 (pIC50) is below 5.30.

In the case of `Nc1ccc(-c2ccc(F)cc2)nc1NC(=O)N1C[C@@H]2[C@@H](CO)[C@@H]2C1` [Compound 238], the pIC50 was 5.30 to 6.30. For `Nc1ccc(-c2ccc(F)cc2)nc1NC(=O)N1Cc2cnc(C3CCOCC3)cc2C1` [Compound 240], the pIC50 is 6.30 to 7.00. As to `CN(C)[C@H]1[C@@H]2CN(C(=O)Nc3nc(-c4ccc(F)cc4)ccc3N)C[C@@H]21` [Compound 242], the negative logarithm of the IC50 (pIC50) was below 5.30.

Regarding `CN1CC(Cn2ncc3c2CN(C(=O)Nc2nc(-c4ccc(F)cc4)ccc2N)C3)C1` [Compound 244], the negative logarithm of the IC50 (pIC50) was 5.30 to 6.30. As to `CN1CC(Cn2cc3c(n2)CN(C(=O)Nc2nc(-c4ccc(F)cc4)ccc2N)C3)C1` [Compound 245], the pIC50 was 6.30 to 7.00.

Consider `CN1CC(n2ncc3c2CN(C(=O)Nc2nc(-c4ccc(F)cc4)ccc2N)C3)C1` [Compound 246], for which the pIC50 is below 5.30.

Consider `CN1CC(n2cc3c(n2)CN(C(=O)Nc2nc(-c4ccc(F)cc4)ccc2N)C3)C1` [Compound 247], for which the pIC50 is 6.30 to 7.00. On to `CN(C1COC1)C1CC2CN(C(=O)Nc3nc(-c4ccc(F)cc4)ccc3N)CC2C1` (centres unmarked) [Compound 248], for which the negative-log IC50 (pIC50) is 5.30 to 6.30. `Nc1ccc(-c2ccc(F)cc2)nc1NC(=O)N1Cc2cccc(N3CCCC3)c2C1` [Compound 249]: the negative logarithm of the IC50 (pIC50) is below 5.30.

With `Nc1cnc(-c2ccc(F)cc2)cc1NC(=O)N1Cc2cnc(N3CCC3)cc2C1` [Compound 254], the negative logarithm of the IC50 (pIC50) was 5.30 to 6.30. As for `Nc1ccc(-c2ccc(F)cc2)nc1NC(=O)N1Cc2cnc(C3CC3)cc2C1` [Compound 255], the negative logarithm of the IC50 (pIC50) was 6.30 to 7.00. `CN1CC(CN2CC3CN(C(=O)Nc4nc(-c5ccc(F)cc5)ccc4N)CC3C2)C1` (centres unmarked) [Compound 256]: the negative logarithm of the IC50 (pIC50) is 5.30 to 6.30. In the case of `Nc1ccc(-c2ccc(F)cc2)nc1NC(=O)N1Cc2cccc(F)c2C1` [Compound 259], the pIC50 was 6.30 to 7.00.

For `COc1cc2c(cn1)CN(C(=O)Nc1nc(-c3ccc(F)cc3)ccc1N)C2` [Compound 260], the pIC50 is 6.30 to 7.00. Take `Cc1cc(F)ccc1-c1ccc(N)c(NC(=O)N2Cc3cnc(CN(C)C)cc3C2)n1` [Compound 261]: the pIC50 was below 5.30.

Consider `CN(C1COC1)[C@H]1[C@@H]2CN(C(=O)Nc3nc(-c4ccc(F)cc4)ccc3N)C[C@@H]21` [Compound 262], for which the negative logarithm of the IC50 (pIC50) was below 5.30. Take `Nc1cn(-c2ccccc2)nc1NC(=O)N1Cc2ccc(CO)cc2C1` [Compound 350]: the pIC50 was 5.30 to 6.30. For the molecule `CN(C)Cc1ccc2c(c1)CN(C(=O)Nc1nn(-c3ccccc3)cc1N)C2` [Compound 351], the negative-log IC50 (pIC50) is 6.30 to 7.00. Turning to `CN1CCN(c2ccc3c(c2)CN(C(=O)Nc2nn(-c4ccccc4)cc2N)C3)CC1` [Compound 352], the negative logarithm of the IC50 (pIC50) is 5.30 to 6.30. As to `CN1CCN(Cc2ccc3c(c2)CN(C(=O)Nc2nn(-c4ccccc4)cc2N)C3)CC1` [Compound 353], the pIC50 is 5.30 to 6.30. Consider `CN1CCC(C(=O)Nc2nn(-c3ccccc3)cc2N)CC1` [Compound 354], for which the pIC50 is below 5.30. `Nc1cn(-c2ccccc2)nc1NC(=O)N1CCN(C2COC2)CC1` [Compound 356]: the pIC50 was below 5.30.

As to `Nc1cn(-c2ccccc2)nc1NC(=O)C1CCNCC1` [Compound 357], the pIC50 is below 5.30.

In the case of `CC(=O)N1CCC(C(=O)Nc2nn(-c3ccccc3)cc2N)CC1` [Compound 358], the pIC50 was below 5.30. For `Nc1cn(-c2ccccc2)nc1NC(=O)C1CCN(C2COC2)CC1` [Compound 359], the pIC50 was below 5.30.

Consider `CC(=O)N1CCN(C(=O)Nc2nn(-c3ccccc3)cc2N)CC1` [Compound 360], for which the pIC50 is below 5.30.

For `CN1CCN(C(=O)Nc2nn(-c3ccccc3)cc2N)CC1` [Compound 361], the pIC50 is below 5.30. Turning to `CN1CC=C(c2ccc3c(c2)CN(C(=O)Nc2nc(-c4ccc(F)cc4)ccc2N)C3)CC1` [Compound 362], the negative-log IC50 (pIC50) is 6.30 to 7.00. With `COC1CCN(Cc2ccc3c(c2)CN(C(=O)Nc2nc(-c4ccc(F)cc4)ccc2N)C3)C1` (centres unmarked) [Compound 363], the negative logarithm of the IC50 (pIC50) was 6.30 to 7.00. As for `Nc1ccc(-c2ccc(F)cc2)nc1NC(=O)N1CCC(F)(F)C1` [Compound 364], the pIC50 was 5.30 to 6.30. For `CN(C)Cc1ccc2c(c1)CN(C(=O)Nc1nc(-c3ccco3)ccc1N)C2` [Compound 365], the negative-log IC50 (pIC50) is 6.30 to 7.00. As for `CN1CCC(N2CCC(C(=O)Nc3nc(-c4ccc(F)cc4)ccc3N)CC2)CC1` [Compound 368], the pIC50 was 5.30 to 6.30. With `Nc1ccc(-n2cccn2)nc1NC(=O)N1Cc2ccncc2C1` [Compound 369], the pIC50 is 5.30 to 6.30. As for `Nc1ccc(-n2cccn2)nc1NC(=O)C1CCN(Cc2ccccc2F)CC1` [Compound 370], the negative logarithm of the IC50 (pIC50) was below 5.30.

In the case of `Nc1ccc(-c2ccco2)nc1NC(=O)N1Cc2ccncc2C1` [Compound 372], the negative-log IC50 (pIC50) was 5.30 to 6.30. Turning to `CN1CCN(c2ccc3c(c2)CN(C(=O)Nc2nc(-c4ccc(F)cc4)ccc2N)C3)CC1` [Compound 374], the negative logarithm of the IC50 (pIC50) is 6.30 to 7.00.

Regarding `CN1CCC(COC(=O)Nc2nc(-c3cccnc3)ccc2N)CC1` [Compound 375], the negative logarithm of the IC50 (pIC50) is below 5.30. As to `CN1CC(CC(=O)Nc2nc(-c3ccc(F)cc3)ccc2N)C1` [Compound 376], the negative-log IC50 (pIC50) is below 5.30.

Take `Nc1ccc(-c2ccccc2)nc1NC(=O)C1CCN(Cc2cccnc2)CC1` [Compound 377]: the pIC50 is below 5.30. For `Nc1ccc(-c2cccnc2)nc1NC(=O)C1CCN(Cc2ccccc2F)CC1` [Compound 378], the negative logarithm of the IC50 (pIC50) is below 5.30. In the case of `Nc1ccc(-c2ccccc2)nc1NC(=O)C1CCN(Cc2ccccc2F)CC1` [Compound 379], the pIC50 was below 5.30. On to `CC(=O)N1CCC(C(=O)Nc2nc(-c3ccccc3)ccc2N)CC1` [Compound 380], for which the pIC50 was below 5.30. As to `Nc1ccc(-c2ccccc2)nc1NC(=O)C1CCN(C2COC2)CC1` [Compound 381], the pIC50 is below 5.30.

Consider `Nc1cn(-c2ccccc2)nc1NC(=O)N1CC2COCC2C1` (centres unmarked) [Compound 382], for which the pIC50 is below 5.30.

Turning to `CN1CCC(c2ccc3c(c2)CN(C(=O)Nc2nn(-c4ccccc4)cc2N)C3)CC1` [Compound 383], the pIC50 was 6.30 to 7.00.

For the molecule `Nc1cn(-c2ccccc2)nc1NC(=O)N1CC2CCCC2C1` (centres unmarked) [Compound 384], the pIC50 is below 5.30. `Nc1ccc(-c2ccc(F)cc2)nc1NC(=O)N1CC2CCCC2C1` (centres unmarked) [Compound 385]: the negative-log IC50 (pIC50) was 5.30 to 6.30.

As to `Nc1ccc(-c2ccc(F)cc2)nc1NC(=O)N1Cc2ccc(CN3CCC(F)(F)C3)cc2C1` [Compound 386], the negative-log IC50 (pIC50) is 6.30 to 7.00. Take `CN1CCC(c2ccc3c(c2)CN(C(=O)Nc2nc(-c4ccc(F)cc4)ccc2N)C3)CC1` [Compound 387]: the negative-log IC50 (pIC50) was 5.30 to 6.30. As to `COC1CCN(C(=O)Nc2nc(-c3ccc(F)cc3)ccc2N)C1` (centres unmarked) [Compound 388], the pIC50 is 5.30 to 6.30.

For `COCC1CCN(C(=O)Nc2nc(-c3ccc(F)cc3)ccc2N)C1` (centres unmarked) [Compound 389], the negative-log IC50 (pIC50) was below 5.30. As for `Nc1ccc(-c2ccc(F)cc2)nc1NC(=O)N1CCC(C(F)(F)F)C1` (centres unmarked) [Compound 390], the figure is 5.30 to 6.30; as for `Nc1ccc(-c2ccc(F)cc2)nc1NC(=O)N1CC2COCC2C1` (centres unmarked) [Compound 392], 5.30 to 6.30. As to `COCc1ccc2c(c1)CN(C(=O)Nc1nc(-c3cccnc3)ccc1N)C2` [Compound 393], the pIC50 is 5.30 to 6.30. As to `CC(O)c1ccc2c(c1)CN(C(=O)Nc1nc(-c3ccc(F)cc3)ccc1N)C2` (centres unmarked) [Compound 394], the pIC50 was 6.30 to 7.00.

Consider `COCc1ccc2c(c1)CN(C(=O)Nc1nc(-c3ccc(F)cc3)ccc1N)C2` [Compound 396], for which the negative logarithm of the IC50 (pIC50) was 6.30 to 7.00.

In the case of `CN(C)Cc1ccc2c(c1)CN(C(=O)Nc1nc(-c3ccc(Cl)s3)ccc1N)C2` [Compound 401], the pIC50 is below 5.30.

Take `Nc1ccc(-c2ccc(F)cc2)nc1NC(=O)C1CC2CCC(C1)O2` (centres unmarked) [Compound 406]: the pIC50 was below 5.30. Turning to `Nc1cn(-c2ccccc2)nc1NC(=O)N1CCC2(CCOCC2)C1` [Compound 407], the pIC50 is below 5.30. On to `Nc1ccc(-c2ccc(F)cc2)nc1NC(=O)N1Cc2ccc(CN3CCC(C(F)(F)F)C3)cc2C1` (centres unmarked) [Compound 408], for which the pIC50 is 6.30 to 7.00. In the case of `CN(C)Cc1ccc2c(c1)CN(C(=O)Nc1nc(-c3cccs3)ccc1N)C2` [Compound 409], the negative logarithm of the IC50 (pIC50) was 6.30 to 7.00. `Nc1ccc(-c2cccs2)nc1NC(=O)N1Cc2ccc(CN3CCCC3)cc2C1` [Compound 410]: the negative-log IC50 (pIC50) was 6.30 to 7.00.
